Reference: patent publication US7511145B2 (Genelabs Technologies, Inc., priority 2003, dated 2009)

Target: T1, HCV-NS5b (Hepatitis C virus genotype 1b, UniProt Q9WMX2)
T1 construct: (His)6 (C); made in house; host or cells: XL-1 cells (E. coli), IPTG-inducible plasmid, nickel-NTA purification
Test: HCV-NS5b enzyme assay (incorporation of radiolabeled UTP)
Type: biochemical
Conditions: for inhibition at 33 µM: enzyme inhibition at compound concentration of 33 uM; for inhibition at 100 µM: read-out: % inh@100, enzyme inhibition at compound concentration of 100 uM
Description: The coding sequence of NS5b protein was cloned by PCR from pFKI389luc/NS3-3′/ET as described by Lohmann, V., et al. (1999) Science 285, 110-113 using the following primers: […]
The cloned fragment was missing the C terminus 21 amino acid residues. The cloned fragment was inserted into an IPTG-inducible expression plasmid that provided an epitope tag (His)6 at the carboxy terminus of the protein.
The recombinant enzyme was expressed in XL-1 cells and after induction of expression, the protein was purified using affinity chromatography on a nickel-NTA column. Storage condition was 10 mM Tris-HCl pH 7.5, 50 mM NaCl, 0.1 mM EDTA, 1 mM DTT, 20% glycerol at −20° C.
The polymerase activity was assayed by measuring incorporation of radiolabeled UTP into a RNA product using a biotinylated, heteropolymeric template, which included a portion of the HCV genome. Typically, the assay mixture (50 μL) contained 10 mM Tris-HCl (pH 7.5), 5 mM MgCl2, 0.2 mM EDTA, 10 mM KCl, 1 unit/μL RNAsin, 1 mM DTT, 10 μM each of NTP, including [^3H]-UTP, and 10 ng/μL heteropolymeric template. Test compounds were initially dissolved in 100% DMSO and further diluted in aqueous buffer containing 5% DMSO. Typically, compounds were tested at concentrations between 1 nM and 100 μM. Reactions were started with addition of enzyme and allowed to continue at 37° C. for 2 hours. Reactions were quenched with 8 μL of 100 mM EDTA and reaction mixtures (30 μL) were transferred to streptavidin-coated scintillation proximity microtiter plates (FlashPlates) and incubated at 4° C. overnight. Incorporation of radioactivity was determined by scintillation counting.
Shown in Table IX below are the values for enzyme inhibition measured at compound concentrations of 100 and 33 uM, (% inh@[…] and % inh@33, respectively). The percent inhibition values are calculated from the differential incorporation of radioactivity compared to a control reaction without compound: % inhibition=100−[(CountsINH−CountsBKG)/CountsCTRL−CountsBKG)×100 where CountsINH is the signal of the testwell with inhibitor, CountsBKG is the background signal and CountsCTRL is the signal of a testwell without inhibitor.

Compound | inhibition at 33 µM [%] | inhibition at 100 µM [%]
O=C(O)c1ccc2c(c1)nc(-c1ccc3nc(-c4ccccc4)cnc3c1)n2C1CCCCC1 [Compound 203, 1-Cyclohexyl-2-(2-phenyl-quinoxalin-6-yl)-1H-benzoimidazole-5-carboxylic acid] | 75 | 97.5
O=C(O)c1ccc2c(c1)nc(-c1ccc3nc(-c4cc(C(=O)N5CCCC5)ccc4-c4ccc(Cl)cc4)ccc3c1)n2C1CCCCC1 [Compound 204, 2-{2-[4′-Chloro-4-(pyrrolidine-1-carbonyl)-biphen-2-yl]-quinolin-6-yl}-1-cyclohexyl-1H-benzoimidazole-5-carboxylic acid] | 99.7 | 101
O=C(O)c1ccc2c(c1)nc(-c1ccc3ncc(-c4ccccc4)nc3c1)n2C1CCCCC1 [Compound 205, 1-Cyclohexyl-2-(3-phenyl-quinoxalin-6-yl)-1H-benzoimidazole-5-carboxylic acid] | 84.4 | 99
O=C(O)c1ccc2c(c1)nc(-c1ccc3ncc(-c4ccccc4)cc3c1)n2C1CCCCC1 [Compound 206, 1-Cyclohexyl-2-(3-phenyl-quinolin-6-yl)-1H-benzoimidazole-5-carboxylic acid] | 94.2 | 96.9
O=C(O)c1ccc2c(c1)nc(-c1ccc3c(c1)CCC(c1ccccc1)N3)n2C1CCCCC1 (stereo not shown) [Compound 215, 1-Cyclohexyl-2-(2-phenyl-1,2,3,4-tetrahydro-quinolin-6-yl)-1H-benzoimidazole-5-carboxylic acid] | 99.2 | 101
Cc1ccc2cc(-c3nc4cc(C(=O)N[C@@H](Cc5c[nH]c6ccc(O)cc56)C(=O)O)ccc4n3C3CCCCC3)ccc2n1 [Compound 230, 2-{[1-Cyclohexyl-2-(2-methyl-quinolin-6-yl)-1H-benzoimidazole-5-carbonyl]-amino}-3-(5-hydroxy-1H-indol-3-yl)-propionic acid] | 92.7 | 98.2
O=C(N[C@@H](CO)C(=O)O)c1ccc2c(c1)nc(-c1ccc3nc(-c4ccccc4)ccc3c1)n2C1CCCCC1 [Compound 231, 2-{[1-Cyclohexyl-2-(2-phenyl-quinolin-6-yl)-1H-benzoimidazole-5-carbonyl]-amino}-3-hydroxy-propionic acid] | 67 | 97.5
NCCCC[C@H](NC(=O)c1ccc2c(c1)nc(-c1ccc3nc(-c4ccccc4)ccc3c1)n2C1CCCCC1)C(=O)O [Compound 232, 6-Amino-2-{[1-cyclohexyl-2-(2-phenyl-quinolin-6-yl)-1H-benzoimidazole-5-carbonyl]-amino}-hexanoic acid] | 60.5 | 80.2
O=C(O)[C@@H]1CCCN1C(=O)c1ccc2c(c1)nc(-c1ccc3nc(-c4ccccc4)ccc3c1)n2C1CCCCC1 [Compound 233, 1-[1-Cyclohexyl-2-(2-phenyl-quinolin-6-yl)-1H-benzoimidazole-5-carbonyl]-pyrrolidine-2-carboxylic acid] | 50 | 88.2
O=C(N[C@@H](Cc1c[nH]c2ccc(O)cc12)C(=O)O)c1ccc2c(c1)nc(-c1ccc3nc(-c4ccccc4)cnc3c1)n2C1CCCCC1 [Compound 234, 2-{[1-Cyclohexyl-2-(2-phenyl-quinoxalin-6-yl)-1H-benzoimidazole-5-carbonyl]-amino}-3-(5-hydroxy-1H-indol-3-yl)-propionic acid] | 98.6 | 100
O=C(N[C@@H](Cc1c[nH]c2ccc(O)cc12)C(=O)O)c1ccc2c(c1)nc(-c1ccc3nc(-c4cc(C(=O)N5CCCC5)ccc4-c4ccc(Cl)cc4)ccc3c1)n2C1CCCCC1 [Compound 235, 2-[(2-{2-[4′-Chloro-4-(pyrrolidine-1-carbonyl)-biphen-2-yl]-quinolin-6-yl}-1-cyclohexyl-1H-benzoimidazole-5-carbonyl)-amino]-3-(5-hydroxy-1H-indol-3-yl)-propionic acid] | 99.1 | 99.5
O=C(N[C@@H](Cc1c[nH]c2ccc(O)cc12)C(=O)O)c1ccc2c(c1)nc(-c1ccc3ncc(-c4ccccc4)nc3c1)n2C1CCCCC1 [Compound 236, 2-{[1-Cyclohexyl-2-(3-phenyl-quinoxalin-6-yl)-1H-benzoimidazole-5-carbonyl]-amino}-3-(5-hydroxy-1H-indol-3-yl)-propionic acid] | 99.2 | 99.2
O=C(O)CC[C@H](NC(=O)c1ccc2c(c1)nc(-c1ccc3nc(-c4ccccc4)ccc3c1)n2C1CCCCC1)C(=O)O [Compound 237, 2-{[1-Cyclohexyl-2-(2-phenyl-quinolin-6-yl)-1H-benzoimidazole-5-carbonyl]-amino}-pentanedioic acid] | 79.7 | 95.6
O=C(N[C@@H](Cc1c[nH]c2ccc(O)cc12)C(=O)O)c1ccc2c(c1)nc(-c1ccc3ncc(-c4ccccc4)cc3c1)n2C1CCCCC1 [Compound 238, 2-{[1-Cyclohexyl-2-(3-phenyl-quinolin-6-yl)-1H-benzoimidazole-5-carbonyl]-amino}-3-(5-hydroxy-1H-indol-3-yl)-propionic acid] | 97.6 | 98.4
O=C(O)CCNC(=O)c1ccc2c(c1)nc(-c1ccc3nc(-c4ccccc4)cnc3c1)n2C1CCCCC1 [Compound 239, 3-{[1-Cyclohexyl-2-(2-phenyl-quinoxalin-6-yl)-1H-benzoimidazole-5-carbonyl]-amino}-propionic acid] | 49.1 | 70.2
O=C(N[C@@H](Cc1ccc(-c2ccccc2)cc1)C(=O)O)c1ccc2c(c1)nc(-c1ccc3nc(-c4ccccc4)cnc3c1)n2C1CCCCC1 [Compound 240, 3-Biphenyl-4-yl-2-{[1-cyclohexyl-2-(2-phenyl-quinoxalin-6-yl)-1H-benzoimidazole-5-carbonyl]-amino}propionic acid] | 95.7 | 96.1
O=C(N[C@@H](Cc1ccc(C(=O)c2ccccc2)cc1)C(=O)O)c1ccc2c(c1)nc(-c1ccc3nc(-c4ccccc4)cnc3c1)n2C1CCCCC1 [Compound 241, 3-(4-Benzoyl-phenyl)-2-{[1-cyclohexyl-2-(2-phenyl-quinoxalin-6-yl)-1H-benzoimidazole-5-carbonyl]-amino}-propionic acid] | 98 | 98.4
O=C(N[C@@H](CC1CCCCC1)C(=O)O)c1ccc2c(c1)nc(-c1ccc3nc(-c4ccccc4)cnc3c1)n2C1CCCCC1 [Compound 242, 3-Cyclohexyl-2-{[1-cyclohexyl-2-(2-phenyl-quinoxalin-6-yl)-1H-benzoimidazole-5-carbonyl]-amino}-propionic acid] | 97.4 | 97
O=C(N[C@H](C(=O)O)C1CCCCC1)c1ccc2c(c1)nc(-c1ccc3nc(-c4ccccc4)cnc3c1)n2C1CCCCC1 [Compound 243, Cyclohexyl-{[1-cyclohexyl-2-(2-phenyl-quinoxalin-6-yl)-1H-benzoimidazole-5-carbonyl]-amino}-acetic acid] | 96 | 98.1
O=C(O)C[C@H](NC(=O)c1ccc2c(c1)nc(-c1ccc3nc(-c4ccccc4)cnc3c1)n2C1CCCCC1)C(=O)O [Compound 244, 2-{[1-Cyclohexyl-2-(2-phenyl-quinoxalin-6-yl)-1H-benzoimidazole-5-carbonyl]-amino}-succinic acid] | 75.7 | 97
